The values that follow come from patent US20230150974A1 (Foghorn Therapeutics Inc., priority 2020, published 2023).

One experiment has as its target T1, HiBiT-BRM (Homo sapiens, UniProt P51531).
T1 construct: expressed in transfected cells
The experiment is described as follows: HiBiT-BRM cell-based degradation assay (Nano-Glo HiBiT Lytic Detection). The following applies: HeLa cells expressing HiBiT-BRM, 24 h; for DC50: read-out: BRM HiBit Degradation IC50. Summed up:
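Luminescence from HiBiT–LgBiT complementation in lysates of a stable HiBiT-BRM HeLa line measured after 24 h compound exposure. Degradation expressed as percent relative to DMSO-treated cells and cells given 2 μM of a known BRM/BRG1 degrader.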
Background: HiBiT is a short tag that completes a luciferase, so light tracks the accessible tagged protein.

The next experiment concerns the target T2, HiBit-BRG1 (Homo sapiens, UniProt P51532).
T2 construct: expressed in transfected cells
The experiment is described as follows: HiBit-BRG1 cell-based degradation assay (Nano-Glo HiBiT Lytic Detection). Conditions: HeLa cells expressing HiBit-BRG1 and LgBit, 24 h; for DC50: read-out: BRG1 HiBit Degradation IC50; for Dmax: read-out: BRG1 HiBit Degradation Maximum (%). Summed up:
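Luminescence from reconstituted NanoBiT luciferase after lytic detection served as read-out of remaining HiBit-BRG1 in stable HeLa cells, which also express LgBit. Cells were seeded at 5000 per well and incubated with compound for 24 h. DMSO and a 2 μM known degrader defined the control range.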

Some results are limits rather than exact numbers.

T1 sequence (P51531 whole entry): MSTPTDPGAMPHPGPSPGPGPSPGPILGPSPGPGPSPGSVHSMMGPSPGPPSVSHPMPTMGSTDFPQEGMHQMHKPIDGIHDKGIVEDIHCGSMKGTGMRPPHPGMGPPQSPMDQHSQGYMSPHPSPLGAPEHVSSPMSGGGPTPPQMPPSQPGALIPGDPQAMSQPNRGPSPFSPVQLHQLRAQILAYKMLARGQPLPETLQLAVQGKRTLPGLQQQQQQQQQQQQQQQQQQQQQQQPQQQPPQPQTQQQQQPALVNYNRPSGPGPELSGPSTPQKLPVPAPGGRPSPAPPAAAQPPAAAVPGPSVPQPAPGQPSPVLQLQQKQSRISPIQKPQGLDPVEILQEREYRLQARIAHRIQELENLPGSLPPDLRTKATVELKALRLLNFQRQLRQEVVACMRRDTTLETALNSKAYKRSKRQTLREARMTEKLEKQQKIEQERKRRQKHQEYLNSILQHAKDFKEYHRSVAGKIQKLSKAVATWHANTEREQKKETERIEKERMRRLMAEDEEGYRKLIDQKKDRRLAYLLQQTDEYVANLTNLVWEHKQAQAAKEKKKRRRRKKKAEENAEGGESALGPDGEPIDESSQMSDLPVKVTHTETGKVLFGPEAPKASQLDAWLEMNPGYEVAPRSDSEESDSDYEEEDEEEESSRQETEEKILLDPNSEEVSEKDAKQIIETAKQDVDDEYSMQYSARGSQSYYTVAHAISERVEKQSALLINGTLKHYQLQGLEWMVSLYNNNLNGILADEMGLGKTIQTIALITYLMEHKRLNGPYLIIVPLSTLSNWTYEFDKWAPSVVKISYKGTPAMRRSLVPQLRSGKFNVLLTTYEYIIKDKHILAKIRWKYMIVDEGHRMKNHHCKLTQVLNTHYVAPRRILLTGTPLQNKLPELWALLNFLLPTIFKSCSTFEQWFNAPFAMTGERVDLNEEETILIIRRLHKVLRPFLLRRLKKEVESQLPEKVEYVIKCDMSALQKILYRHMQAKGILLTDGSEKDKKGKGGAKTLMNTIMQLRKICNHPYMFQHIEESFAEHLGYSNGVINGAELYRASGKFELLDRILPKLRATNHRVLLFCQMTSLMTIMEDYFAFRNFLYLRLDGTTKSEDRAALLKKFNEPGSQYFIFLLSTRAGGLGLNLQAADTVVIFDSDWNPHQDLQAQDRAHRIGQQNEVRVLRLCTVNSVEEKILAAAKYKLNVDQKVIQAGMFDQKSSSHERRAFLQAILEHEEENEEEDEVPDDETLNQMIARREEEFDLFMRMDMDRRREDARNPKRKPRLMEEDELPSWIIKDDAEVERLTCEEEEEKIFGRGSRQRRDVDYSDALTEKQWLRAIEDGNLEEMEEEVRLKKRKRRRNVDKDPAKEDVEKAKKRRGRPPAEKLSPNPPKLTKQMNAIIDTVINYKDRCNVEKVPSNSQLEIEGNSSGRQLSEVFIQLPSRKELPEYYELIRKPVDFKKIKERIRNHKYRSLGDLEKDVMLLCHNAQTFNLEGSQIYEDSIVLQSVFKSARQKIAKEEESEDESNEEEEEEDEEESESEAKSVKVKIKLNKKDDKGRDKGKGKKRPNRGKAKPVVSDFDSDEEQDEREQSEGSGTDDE
T2 sequence (P51532 whole entry): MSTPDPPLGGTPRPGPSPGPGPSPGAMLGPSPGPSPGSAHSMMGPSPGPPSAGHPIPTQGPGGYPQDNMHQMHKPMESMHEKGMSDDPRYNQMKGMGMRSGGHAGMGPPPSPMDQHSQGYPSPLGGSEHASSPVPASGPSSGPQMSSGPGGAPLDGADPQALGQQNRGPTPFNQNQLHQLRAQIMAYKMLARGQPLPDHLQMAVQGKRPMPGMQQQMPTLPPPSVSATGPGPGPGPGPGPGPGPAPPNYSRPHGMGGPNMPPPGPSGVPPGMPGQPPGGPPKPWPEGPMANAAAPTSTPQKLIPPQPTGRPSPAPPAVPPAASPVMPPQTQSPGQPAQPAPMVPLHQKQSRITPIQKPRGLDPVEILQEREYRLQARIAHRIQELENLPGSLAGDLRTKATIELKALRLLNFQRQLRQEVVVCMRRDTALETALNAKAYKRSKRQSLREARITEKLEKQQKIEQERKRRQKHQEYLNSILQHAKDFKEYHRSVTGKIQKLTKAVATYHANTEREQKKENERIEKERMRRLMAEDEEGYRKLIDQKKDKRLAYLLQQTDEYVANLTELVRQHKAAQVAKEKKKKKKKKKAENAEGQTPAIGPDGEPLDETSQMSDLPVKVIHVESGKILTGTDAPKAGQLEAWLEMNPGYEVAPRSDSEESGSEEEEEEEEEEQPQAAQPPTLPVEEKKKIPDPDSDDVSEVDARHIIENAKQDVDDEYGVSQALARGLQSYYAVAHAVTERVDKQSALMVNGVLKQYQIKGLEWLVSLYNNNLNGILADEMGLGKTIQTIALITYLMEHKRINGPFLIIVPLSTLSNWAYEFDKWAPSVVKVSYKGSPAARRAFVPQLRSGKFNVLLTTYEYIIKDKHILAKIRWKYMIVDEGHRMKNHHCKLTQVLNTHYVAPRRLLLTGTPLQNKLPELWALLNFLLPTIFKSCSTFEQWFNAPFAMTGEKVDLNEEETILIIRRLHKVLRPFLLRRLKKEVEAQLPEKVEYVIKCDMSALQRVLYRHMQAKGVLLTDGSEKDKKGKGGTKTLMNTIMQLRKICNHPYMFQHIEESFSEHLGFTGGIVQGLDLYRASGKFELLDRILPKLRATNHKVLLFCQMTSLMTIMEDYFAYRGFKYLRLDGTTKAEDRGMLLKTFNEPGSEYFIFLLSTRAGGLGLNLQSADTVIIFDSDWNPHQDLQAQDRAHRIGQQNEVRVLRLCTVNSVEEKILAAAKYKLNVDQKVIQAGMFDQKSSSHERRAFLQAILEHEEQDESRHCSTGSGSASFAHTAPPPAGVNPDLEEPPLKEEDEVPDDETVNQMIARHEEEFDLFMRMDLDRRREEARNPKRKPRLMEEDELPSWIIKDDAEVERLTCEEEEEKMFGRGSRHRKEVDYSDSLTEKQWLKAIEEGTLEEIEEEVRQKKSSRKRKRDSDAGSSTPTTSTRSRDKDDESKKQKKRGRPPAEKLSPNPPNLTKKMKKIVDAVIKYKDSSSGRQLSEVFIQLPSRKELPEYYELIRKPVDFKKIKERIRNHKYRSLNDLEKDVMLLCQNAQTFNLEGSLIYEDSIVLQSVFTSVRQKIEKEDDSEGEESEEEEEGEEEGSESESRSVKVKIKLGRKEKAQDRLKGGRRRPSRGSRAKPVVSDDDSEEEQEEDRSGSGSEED

For `Cc1ncsc1-c1ccc(CNC(=O)[C@@H]2C[C@@H](O)CN2C(=O)[C@@H](NC(=O)CCCCCCCCCCCCCCCC(=O)NCc2ccc(CCOc3cc(-c4ccccc4O)nnc3N)cc2)C(C)(C)C)cc1` [Compound 32, N1-(4-(2-((3-amino-6-(2-hydroxyphenyl)pyridazin-4-yl)oxy)ethyl)benzyl)-N17-((S)-1-((2S,4R)-4-hydroxy-2-((4-(4-methylthiazol-5-yl)benzyl)carbamoyl)pyrrolidin-1-yl)-3,3-dimethyl-1-oxobutan-2-yl)heptadecanediamide], at HiBiT-BRM, the “BRM HiBit Degradation Maximum (%)” value is on record as “A (“A” indicates maximum degradation ≥75%)” and the DC50 is greater than 10 nM. On HiBit-BRG1, the DC50 is greater than 1000 nM and the Dmax is less than 50%.
Turning to `Nc1nnc(-c2ccccc2O)cc1OCCc1ccc(C(=O)NCCOCCOCCNc2cccc3c2CN(C2CCC(=O)NC2=O)C3=O)cc1` (centres unmarked) [Compound 54, 4-(2-[[3-amino-6-(2-hydroxyphenyl)pyridazin-4-yl]oxy]ethyl)-N-[2-[2-(2-[[2-(2,6-dioxopiperidin-3-yl)-1-oxo-3H-isoindol-4-yl]amino]ethoxy)ethoxy]ethyl]benzamide], at HiBiT-BRM, the “BRM HiBit Degradation Maximum (%)” value is recorded as “C (“C” indicates maximum degradation <50%)” and the DC50 was greater than 1000 nM. Further, on HiBit-BRG1, the DC50 was greater than 1000 nM and the Dmax is less than 50%.
With `CN(CCNC(=O)c1ccc(CCOc2cc(-c3ccccc3O)nnc2N)cc1)CCNc1cccc2c1C(=O)N(C1CCC(=O)NC1=O)C2=O` (centres unmarked) [Compound 61, 4-(2-[[3-amino-6-(2-hydroxyphenyl)pyridazin-4-yl]oxy]ethyl)-N-[2-[(2-[[2-(2,6-dioxopiperidin-3-yl)-1,3-dioxoisoindol-4-yl]amino]ethyl)(methyl)amino]ethyl]benzamide], on HiBiT-BRM, the “BRM HiBit Degradation Maximum (%)” value was “B (“B” indicates maximum degradation ≥50%)” and the DC50 is greater than 100 nM. On HiBit-BRG1, the DC50 is greater than 1000 nM and the Dmax is less than 50%.
`Cc1ncsc1-c1ccc(CNC(=O)[C@@H]2C[C@@H](O)CN2C(=O)[C@@H](NC(=O)CCCCCCCCCCCCCCC(=O)N(C)Cc2ccc(CCOc3cc(-c4ccccc4O)nnc3N)cc2)C(C)(C)C)cc1` [Compound 223, N1-(4-(2-((3-amino-6-(2-hydroxyphenyl)pyridazin-4-yl)oxy)ethyl)benzyl)-N16-((S)-1-((2S,4R)-4-hydroxy-2-((4-(4-methylthiazol-5-yl)benzyl)carbamoyl)pyrrolidin-1-yl)-3,3-dimethyl-1-oxobutan-2-yl)-N1-methylhexadecanediamide]: at HiBiT-BRM, the “BRM HiBit Degradation Maximum (%)” value is “A (“A” indicates maximum degradation ≥75%)” and the DC50 was greater than 100 nM. On HiBit-BRG1, the DC50 is greater than 1000 nM and the Dmax is less than 50%.
For `Cc1ncsc1-c1ccc([C@H](C)NC(=O)[C@@H]2C[C@@H](O)CN2C(=O)[C@@H](NC(=O)CCCCCCCCCCCCCC(=O)NCc2ccc(CCN(C)c3cc(-c4ccccc4O)nnc3N)cc2)C(C)(C)C)cc1` [Compound 255, N1-(4-(2-((3-amino-6-(2-hydroxyphenyl)pyridazin-4-yl)(methyl)amino)ethyl)benzyl)-N15-((S)-1-((2S,4R)-4-hydroxy-2-(((S)-1-(4-(4-methylthiazol-5-yl)phenyl)ethyl)carbamoyl)pyrrolidin-1-yl)-3,3-dimethyl-1-oxobutan-2-yl)pentadecanediamide], at HiBiT-BRM, the “BRM HiBit Degradation Maximum (%)” value is “A (“A” indicates maximum degradation ≥75%)” and the DC50 was greater than 10 nM. At HiBit-BRG1, the DC50 is greater than 1000 nM and the Dmax was less than 50%.
For `Nc1nnc(-c2ccccc2O)cc1OCCc1ccc(CNCCN2CCN(c3cccc4c3C(=O)N(C3CCC(=O)NC3=O)C4=O)CC2=O)cc1` (centres unmarked) [Compound 153, 4-(4-(2-((4-(2-((3-amino-6-(2-hydroxyphenyl)pyridazin-4-yl)oxy)ethyl)benzyl)amino)ethyl)-3-oxopiperazin-1-yl)-2-(2,6-dioxopiperidin-3-yl)isoindoline-1,3-dione] the same measures were “C (“C” indicates maximum degradation <50%)”, greater than 1000 nM, greater than 1000 nM and less than 50%.
On to `Cc1ncsc1-c1ccc(CNC(=O)[C@@H]2C[C@@H](O)CN2C(=O)[C@@H](NC(=O)COCCOCCOCCOCC(=O)NCc2ccc(CCOc3cc(-c4ccccc4O)nnc3N)cc2)C(C)(C)C)cc1` [Compound 39], for which, on HiBiT-BRM, the “BRM HiBit Degradation Maximum (%)” value is on record as “C (“C” indicates maximum degradation <50%)” and the DC50 was greater than 1000 nM. Moreover, on HiBit-BRG1, the DC50 was greater than 1000 nM and the Dmax was less than 50%.
Consider `Nc1nnc(-c2ccccc2O)cc1N1CCN(CCNC(=O)CCCCCCCCCCNc2cccc3c2C(=O)N(C2CCC(=O)NC2=O)C3=O)CC1` (centres unmarked) [Compound 88, N-(2-[4-[3-amino-6-(2-hydroxyphenyl)pyridazin-4-yl]piperazin-1-yl]ethyl)-11-[[2-(2,6-dioxopiperidin-3-yl)-1,3-dioxoisoindol-4-yl]amino]undecanamide], for which, at HiBiT-BRM, the “BRM HiBit Degradation Maximum (%)” value is reported as “C (“C” indicates maximum degradation <50%)” and the DC50 was greater than 1000 nM. Further, at HiBit-BRG1, the DC50 was greater than 1000 nM and the Dmax was less than 50%.
Turning to `Cc1ncsc1-c1ccc([C@H](C)NC(=O)[C@@H]2C[C@@H](O)CN2C(=O)[C@@H](c2cc(OCCNCCCCCCC(=O)NCc3ccc(CCOc4cc(-c5ccccc5O)nnc4N)cc3)no2)C(C)C)cc1` [Compound 229, (2S,4R)-1-((R)-2-(3-(2-((7-((4-(2-((3-amino-6-(2-hydroxyphenyl)pyridazin-4-yl)oxy)ethyl)benzyl)amino)-7-oxoheptyl)amino)ethoxy)isoxazol-5-yl)-3-methylbutanoyl)-4-hydroxy-N-((S)-1-(4-(4-methylthiazol-5-yl)phenyl)ethyl)pyrrolidine-2-carboxamide], at HiBiT-BRM, the “BRM HiBit Degradation Maximum (%)” value is listed as “B (“B” indicates maximum degradation ≥50%)” and the DC50 is greater than 1000 nM. On HiBit-BRG1, the DC50 is greater than 1000 nM and the Dmax was less than 50%.
With `Cc1ncsc1-c1ccc([C@H](C)NC(=O)[C@@H]2C[C@@H](O)CN2C(=O)[C@@H](c2cc(OCCN3CCC(CC(=O)NCc4ccc(CCOc5cc(-c6ccccc6O)nnc5N)cc4)CC3)no2)C(C)C)cc1` [Compound 177, (2S,4R)-1-((R)-2-(3-(2-(4-(2-((4-(2-((3-amino-6-(2-hydroxyphenyl)pyridazin-4-yl)oxy)ethyl)benzyl)amino)-2-oxoethyl)piperidin-1-yl)ethoxy)isoxazol-5-yl)-3-methylbutanoyl)-4-hydroxy-N-((S)-1-(4-(4-methylthiazol-5-yl)phenyl)ethyl)pyrrolidine-2-carboxamide], on HiBiT-BRM, the “BRM HiBit Degradation Maximum (%)” value is reported as “A (“A” indicates maximum degradation ≥75%)” and the DC50 was greater than 100 nM. In addition, on HiBit-BRG1, the DC50 was greater than 1000 nM and the Dmax was greater than 75%.
With `Cc1ncsc1-c1ccc(CNC(=O)[C@@H]2C[C@@H](O)CN2C(=O)[C@@H](NC(=O)CCN2CC(C3CN(C(=O)c4ccc(CCOc5cc(-c6ccccc6O)nnc5N)cc4)C3)C2)C(C)(C)C)cc1` [Compound 224, (2S,4R)-1-((S)-2-(3-(1′-(4-(2-((3-amino-6-(2-hydroxyphenyl)pyridazin-4-yl)oxy)ethyl)benzoyl)-[3,3′-biazetidin]-1-yl)propanamido)-3,3-dimethylbutanoyl)-4-hydroxy-N-(4-(4-methylthiazol-5-yl)benzyl)pyrrolidine-2-carboxamide], at HiBiT-BRM, the “BRM HiBit Degradation Maximum (%)” value is listed as “C (“C” indicates maximum degradation <50%)” and the DC50 was greater than 1000 nM. Also, at HiBit-BRG1, the DC50 was greater than 1000 nM and the Dmax was less than 50%.
Take `Nc1nnc(-c2ccccc2O)cc1OCCc1ccc(C(=O)NCCCCCCCCCCC(=O)NCc2ccc(S(=O)(=O)Nc3cccc4c(Cl)c[nH]c34)cc2)cc1` [Compound 11, 11-[[4-(2-[[3-amino-6-(2-hydroxyphenyl)pyridazin-4-yl]oxy]ethyl)phenyl]formamido]-N-([4-[(3-chloro-1H-indol-7-yl)sulfamoyl]phenyl]methyl)undecanamide]: on HiBiT-BRM, the “BRM HiBit Degradation Maximum (%)” value is on record as “C (“C” indicates maximum degradation <50%)” and the DC50 is greater than 1000 nM. Moreover, at HiBit-BRG1, the DC50 is greater than 1000 nM and the Dmax was less than 50%.
Regarding `Cc1ncsc1-c1ccc([C@H](C)NC(=O)[C@@H]2C[C@@H](O)CN2C(=O)[C@@H](c2cc(OCCN3CC4=C(C3)CN(C(=O)c3ccc(CCOc5cc(-c6ccccc6O)nnc5N)cc3)C4)no2)C(C)C)cc1` [Compound 213, (2S,4R)-1-((R)-2-(3-(2-(5-(4-(2-((3-amino-6-(2-hydroxyphenyl)pyridazin-4-yl)oxy)ethyl)benzoyl)-3,4,5,6-tetrahydropyrrolo[3,4-c]pyrrol-2(1H)-yl)ethoxy)isoxazol-5-yl)-3-methylbutanoyl)-4-hydroxy-N-((S)-1-(4-(4-methylthiazol-5-yl)phenyl)ethyl)pyrrolidine-2-carboxamide], on HiBiT-BRM, the “BRM HiBit Degradation Maximum (%)” value is given as “A (“A” indicates maximum degradation ≥75%)” and the DC50 was greater than 10 nM. At HiBit-BRG1, the DC50 is greater than 100 nM and the Dmax was greater than 75%.
For the compound `Nc1nnc(-c2ccccc2O)cc1OCCc1ccc(CNC(=O)CCCCNc2ccc3c(c2)C(=O)N(C2CCC(=O)NC2=O)C3=O)cc1` (centres unmarked) [Compound 154, N-(4-(2-((3-amino-6-(2-hydroxyphenyl)pyridazin-4-yl)oxy)ethyl)benzyl)-5-((2-(2,6-dioxopiperidin-3-yl)-1,3-dioxoisoindolin-5-yl)amino)pentanamide], at HiBiT-BRM, the “BRM HiBit Degradation Maximum (%)” value is on record as “C (“C” indicates maximum degradation <50%)” and the DC50 is greater than 1000 nM. Also, on HiBit-BRG1, the DC50 is greater than 1000 nM and the Dmax is less than 50%.
